Results from patent US4291164A, “Cephalosporin analogs and methods for production thereof” (Kyowa Hakko Kogyo Co., Ltd., priority 1978, dated 1981).
In brackets after ≈: the same amount, converted by molar mass. Counter-ions that a name gives are not always drawn.

Key:
Format in all cases: cell-based
Escherichia coli NIHJC2 = test: Antibacterial activity, Heart Infusion Agar Dilution Method, Escherichia coli NIHJC2; conditions: Escherichia coli NIHJC2, Heart Infusion Agar Dilution, pH 7.2; for MIC: read-out: Minimum Inhibitory Concentration
Protocol: (§1) The antibacterial activity of the compounds obtained in the above Examples 24, 26, 28, 30, 32, 34, 36, 38, 40 and 41 are determined by Heart Infusion Agar Dilution Method (pH 7.2). Cefazolin is used as a reference.

Pseudomonas putida F264 = test: Antibacterial activity, Heart Infusion Agar Dilution Method, Pseudomonas putida F264; conditions: for MIC: pH 7.2, read-out: Minimum Inhibitory Concentration
Proteus mirabilis 1287 = test: Antibacterial activity, Heart Infusion Agar Dilution Method, Proteus mirabilis 1287; conditions: for MIC: pH 7.2, read-out: Minimum Inhibitory Concentration
Protocol: as §1

[1] = tested on: Klebsiella pneumoniae Y60; test: Antibacterial activity, Heart Infusion Agar Dilution Method, Klebsiella pneumoniae Y60; conditions: pH 7.2, read-out: Minimum Inhibitory Concentration
Serratia marcescens T55 = test: Antibacterial activity, Heart Infusion Agar Dilution Method, Serratia marcescens T55; conditions: for MIC: pH 7.2, read-out: Minimum Inhibitory Concentration
Serratia marcescens T26 = test: Antibacterial activity, Heart Infusion Agar Dilution Method, Serratia marcescens T26; conditions: for MIC: pH 7.2, read-out: Minimum Inhibitory Concentration
Escherichia coli Juhl = test: Antibacterial activity, Heart Infusion Agar Dilution Method, Escherichia coli Juhl; conditions: Escherichia coli Juhl; Heart Infusion Agar Dilution, pH 7.2; read-out: Minimum Inhibitory Concentration
[2] = tested on: Staphylococcus epidermidis; test: Antibacterial activity, Heart Infusion Agar Dilution Method, Staphylococcus epidermidis; conditions: for MIC: pH 7.2, read-out: Minimum Inhibitory Concentration
Protocol: as §1

Proteus morganii KY4298 = test: Antibacterial activity, Heart Infusion Agar Dilution Method, Proteus morganii KY4298; conditions: for MIC: Morganella morganii, pH 7.2, read-out: Minimum Inhibitory Concentration
Protocol: as §1

[3] = tested on: Klebsiella pneumoniae 8045; test: Antibacterial activity, Heart Infusion Agar Dilution Method, Klebsiella pneumoniae 8045; conditions: for MIC: pH 7.2, read-out: Minimum Inhibitory Concentration
Protocol: as §1

[4] = tested on: Pseudomonas aeruginosa 145; test: Antibacterial activity, Heart Infusion Agar Dilution Method, Pseudomonas aeruginosa 145; conditions: for MIC: Pseudomonas aeruginosa, 145, pH 7.2, read-out: Minimum Inhibitory Concentration
Protocol: as §1

[5] = tested on: Staphylococcus aureus Smith; test: Antibacterial activity, Heart Infusion Agar Dilution Method, Staphylococcus aureus Smith; conditions: for MIC: pH 7.2, read-out: Minimum Inhibitory Concentration
Protocol: as §1

Proteus vulgaris 6897 = test: Antibacterial activity, Heart Infusion Agar Dilution Method, Proteus vulgaris 6897; conditions: for MIC: pH 7.2, read-out: Minimum Inhibitory Concentration
Protocol: as §1

Proteus rettgeri KY4289 = test: Antibacterial activity, Heart Infusion Agar Dilution Method, Proteus rettgeri KY4289; conditions: for MIC: Providencia rettgeri, pH 7.2, read-out: Minimum Inhibitory Concentration
Protocol: as §1

[6] = tested on: Staphylococcus aureus 209p; test: Antibacterial activity, Heart Infusion Agar Dilution Method, Staphylococcus aureus 209p; conditions: for MIC: pH 7.2, read-out: Minimum Inhibitory Concentration
Protocol: as §1

Row | MIC (Escherichia coli NIHJC2) | MIC (Pseudomonas putida F264) | MIC (Proteus mirabilis 1287) | MIC [1] | MIC (Serratia marcescens T55) | MIC (Serratia marcescens T26) | MIC (Escherichia coli Juhl) | MIC [2] | MIC (Proteus morganii KY4298) | MIC [3] | MIC [4] | MIC [5] | MIC (Proteus vulgaris 6897) | MIC (Proteus rettgeri KY4289) | MIC [6] | Structure (SMILES) | also measured
1 | 12.5 µg/mL (≈ 38 µM) | 100 µg/mL (≈ 304 µM) | 50 µg/mL (≈ 152 µM) | > 100 µg/mL | 25 µg/mL (≈ 75.9 µM) | > 100 µg/mL | 12.5 µg/mL (≈ 38 µM) | 6.25 µg/mL (≈ 19 µM) | 100 µg/mL (≈ 304 µM) | 3.12 µg/mL (≈ 9.47 µM) | > 100 µg/mL | 6.25 µg/mL (≈ 19 µM) | 50 µg/mL (≈ 152 µM) | > 100 µg/mL | 0.78 µg/mL (≈ 2.37 µM) | C[C@@H]1C=C(C(=O)O)N2C(=O)[C@@H](NC(=O)[C@H](N)c3ccccc3)[C@H]2C1 (relative stereo) [Example 32, (±)-cis-7β-[(R)-2-phenyl-2-aminoacetamido]-4α-methyl-2-carboxy-1-azabicyclo[4,2,0]oct-2-en-8-one] | 
2 | 0.4 µg/mL (≈ 1.05 µM) |  | 0.2 µg/mL (≈ 0.527 µM) |  |  | 25 µg/mL (≈ 65.9 µM) | 0.78 µg/mL (≈ 2.06 µM) | 25 µg/mL (≈ 65.9 µM) | 0.78 µg/mL (≈ 2.06 µM) | 0.1 µg/mL (≈ 0.264 µM) | > 100 µg/mL | 25 µg/mL (≈ 65.9 µM) | < 0.05 µg/mL | 0.1 µg/mL (≈ 0.264 µM) | 12.5 µg/mL (≈ 32.9 µM) | CO/N=C(/C(=O)N[C@@H]1C(=O)N2C(C(=O)O)=C[C@@H](C)C[C@H]12)c1csc(N)n1 (relative stereo) [Example 34, (±)-cis-7β[2-(2-amino-4-thiazolyl)-2-anti-methoxyiminoacetamido]-4α-methyl-2-carboxy-1-azabicyclo[4,2,0]oct-2-en-8-one] | 

Further lines, the molecule ahead of its results:

Row | Structure (SMILES) | MIC (Escherichia coli NIHJC2) | MIC (Pseudomonas putida F264) | MIC (Proteus mirabilis 1287) | MIC [1] | MIC (Serratia marcescens T55) | MIC (Serratia marcescens T26) | MIC (Escherichia coli Juhl) | MIC [2] | MIC (Proteus morganii KY4298) | MIC [3] | MIC [4] | MIC [5] | MIC (Proteus vulgaris 6897) | MIC (Proteus rettgeri KY4289) | MIC [6] | also measured
3 | N[C@@H](C(=O)N[C@H]1C(=O)N2C(C(=O)O)=CCC[C@H]12)c1ccccc1 (racemic) [Example 26, (±)-cis-7-[(R)-2-phenyl-2-aminoacetamido]-1-azabicyclo-[4,2,0]oct-2-en-8-on-2-carboxylic acid] | 12.5 µg/mL (≈ 39.6 µM) | > 100 µg/mL | 25 µg/mL (≈ 79.3 µM) | 12.5 µg/mL (≈ 39.6 µM) | 25 µg/mL (≈ 79.3 µM) | > 100 µg/mL | 12.5 µg/mL (≈ 39.6 µM) | 6.25 µg/mL (≈ 19.8 µM) | 100 µg/mL (≈ 317 µM) | 3.12 µg/mL (≈ 9.89 µM) | > 100 µg/mL | 12.5 µg/mL (≈ 39.6 µM) | 25 µg/mL (≈ 79.3 µM) | 50 µg/mL (≈ 159 µM) | 0.4 µg/mL (≈ 1.27 µM) | 
4 | CON=C(C(=O)NC1C(=O)N2C(C(=O)O)=CC(C)CC12)c1csc(N)n1 (racemic) [Example 36, (±)-cis-7β-[2-(2-amino-4-thiazolyl)-2-methoxyiminoacetamido]-4β-methyl-2-carboxy-1-azabicyclo[4,2,0]oct-2-en-8-one] |  |  |  |  |  |  |  |  |  |  |  |  |  |  |  | Minimum Inhibitory Concentration (Escherichia coli NIHJC2): 0.2 µg/mL; Minimum Inhibitory Concentration (Pseudomonas putida F264; pH 7.2): 0.4 µg/mL; Minimum Inhibitory Concentration (Proteus mirabilis 1287; pH 7.2): 0.78 µg/mL; Minimum Inhibitory Concentration (Serratia marcescens T55; pH 7.2): 3.12 µg/mL; Minimum Inhibitory Concentration (Serratia marcescens T26; pH 7.2): 6.25 µg/mL; Minimum Inhibitory Concentration ([2]; pH 7.2): > 100 µg/mL; Minimum Inhibitory Concentration (Proteus morganii KY4298; pH 7.2): 0.78 µg/mL; Minimum Inhibitory Concentration ([3]; pH 7.2): 0.2 µg/mL; Minimum Inhibitory Concentration ([4]; Pseudomonas aeruginosa 145, Heart Infusion Agar Dilution, pH 7.2): > 100 µg/mL; Minimum Inhibitory Concentration ([5]; pH 7.2): 100 µg/mL; Minimum Inhibitory Concentration (Proteus vulgaris 6897; pH 7.2): 0.78 µg/mL; Minimum Inhibitory Concentration (Proteus rettgeri KY4289; pH 7.2): 0.4 µg/mL; Minimum Inhibitory Concentration ([6]; pH 7.2): 50 µg/mL
5 | CO/N=C(/C(=O)N[C@@H]1C(=O)N2C(C(=O)O)=CCC[C@H]12)c1csc(N)n1 (relative stereo) [Example 24, (±)-cis-7-[2-(2-amino-4-thiazolyl)-2-anti-methoxyimino-acetamido]-1-azabicyclo[4,2,0]oct-2-en-8-one-2-carboxylic acid] | 0.78 µg/mL (≈ 2.13 µM) | 0.78 µg/mL (≈ 2.13 µM) | 0.78 µg/mL (≈ 2.13 µM) | 1.56 µg/mL (≈ 4.27 µM) | 1.56 µg/mL (≈ 4.27 µM) | 3.12 µg/mL (≈ 8.54 µM) | 1.56 µg/mL (≈ 4.27 µM) | 100 µg/mL (≈ 274 µM) | 0.78 µg/mL (≈ 2.13 µM) | 0.2 µg/mL (≈ 0.547 µM) | > 100 µg/mL | > 100 µg/mL | 0.4 µg/mL (≈ 1.09 µM) | 0.1 µg/mL (≈ 0.274 µM) | 100 µg/mL (≈ 274 µM) | 
6 | C[C@H]1C=C(C(=O)O)N2C(=O)[C@@H](NC(=O)[C@H](N)c3ccccc3)[C@H]2C1 (relative stereo) [Example 30, trifluoroacetate of (±)-cis-7β-[(R)-2-phenyl-2-aminoacetamido]-4β-methyl-2-carboxy-1-azabicyclo[4,2,0]oct-2-en-8-one] | 50 µg/mL | > 100 µg/mL | > 100 µg/mL | 100 µg/mL | > 100 µg/mL | > 100 µg/mL | 25 µg/mL | 3.12 µg/mL | > 100 µg/mL | 6.25 µg/mL | > 100 µg/mL | 1.56 µg/mL | > 100 µg/mL | > 100 µg/mL | 0.4 µg/mL | 
